The record followed here is patent publication US20250346584A1, “NOVEL KAPPA OPIOID LIGANDS” (The Scripps Research Institute, priority 2012, published 2025).

The first assay deals with kappa opioid receptor (OPRK1) (Homo sapiens (Human), UniProt P41145). Put plainly: OPRK1 antagonist assay (b-arrestin-2-TEV / b-lactamase reporter cell line, EC80 U-50488 challenge). The class given is cell-based. The note with it: % inhibition at the concentration given.
Sequence of kappa opioid receptor (OPRK1) (P41145 whole entry): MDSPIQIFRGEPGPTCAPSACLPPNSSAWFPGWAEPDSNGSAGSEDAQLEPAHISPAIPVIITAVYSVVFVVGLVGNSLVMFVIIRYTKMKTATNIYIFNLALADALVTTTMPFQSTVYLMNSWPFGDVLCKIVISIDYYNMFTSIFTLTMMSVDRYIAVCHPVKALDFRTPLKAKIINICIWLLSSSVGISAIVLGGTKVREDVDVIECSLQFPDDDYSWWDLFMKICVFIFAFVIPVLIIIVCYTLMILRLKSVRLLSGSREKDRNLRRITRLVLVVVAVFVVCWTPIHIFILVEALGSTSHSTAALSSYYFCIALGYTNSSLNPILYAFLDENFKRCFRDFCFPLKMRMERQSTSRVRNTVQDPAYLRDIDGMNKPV
For the compound `O=C(O)c1cc(Br)cnc1N1CCC(NC2CCCCC2)CC1` [compound 34], the “% inhib if other than 50%” value is 85%.

Still in this assay, the particulars now being: read-out: IC50 nM (% inhib if other than 50%); antagonist mode vs EC80 U-50488; NA = not active at concentrations up to 10 μM.
Regarding `COC1CN(c2nc3cccc(F)c3cc2-c2nc(C)no2)CCC1NC1CCCCC1` (stereo not drawn) [compound 252], the IC50 came out at 12 nM.

Turning to `Cc1noc(-c2nc3ccccc3nc2N2CCC(NC3CCCCC3)C(CO)C2)n1` (stereo not drawn) [compound 189], the IC50 was 125 nM.

Regarding `Cc1nc(-c2cc3cc(C)c(F)cc3nc2N2CCC(NC3CCOCC3)CC2)no1` [compound 507], the IC50 came to 43 nM.

For `COC(=O)c1cc(Br)cnc1N1CCC(N2CCCCC2)CC1` [compound 18], the IC50 was determined as 2100 nM.

Consider `Cc1ccc2nc(N3CCC(NC4CCCOC4)CC3)c(-c3nc(C)no3)cc2c1` (stereo not drawn) [compound 247], for which the IC50 came out at 4 nM.

Turning to `c1cnc(-c2cc3ccccc3nc2N2CCC(NC3CCOCC3)CC2)nc1` [compound 286], the IC50 worked out at 298 nM.

Regarding `COC1CN(c2nc3ccc(C)cc3cc2-c2nc(C3CC3)no2)CCC1NC1CCCCC1` (stereo not drawn) [compound 303], the IC50 is 0.5 nM.

On to `CO[C@H]1CN(c2nc3ccc(C)cc3cc2-c2noc(C)n2)CC[C@H]1NC1CCCCC1` [compound 338], for which the IC50 stood at 0.99 nM.

Take `COC1CN(c2nc(C)c(C)cc2-c2nc(C)no2)CCC1NC1CCCC1` (stereo not drawn) [compound 317]: the IC50 was found to be 27 nM.

Take `COC(=O)c1cc(Br)cnc1N1CC2CN(C3CCCC3)CC2C1` (stereo not drawn) [compound 50]: the IC50 was 1000 nM.

Turning to `COC(=O)c1cc(NC(C)=O)cnc1N1CCC(NC2CCCCC2)CC1` [compound 86], the IC50 stood at 628 nM.

`CO[C@H]1CN(c2nc3ccc(C)cc3cc2-c2nc(C)no2)CC[C@H]1NC1CCCCC1` [compound 294]: the IC50 stood at 0.7 nM.

Take `CCc1noc(-c2cc(C)cnc2N2CC[C@@H](NC3CCCCC3)[C@H](O)C2)n1` [compound 168]: the IC50 stood at 7000 nM.

`Cc1nc(-c2cc3cc(C)c(F)cc3nc2N2CCC(N[C@H]3CCCC[C@@H]3O)CC2)no1` [compound 506]: the IC50 worked out at 48 nM.

Take `Cc1ccc2nc(N3CCC(NC4CCOCC4)CC3)c(-c3noc(C)n3)cc2c1` [compound 332]: the IC50 is 19 nM.

On to `COC(=O)c1cc(Br)cnc1N1CCC(NC2CCC[C@H]2O)CC1` (stereo partly drawn) [compound 12], for which the IC50 came to 765 nM.

On to `COC1CN(c2nc3ccccc3cc2-c2nc(C)no2)CCC1NC1CCOCC1` (stereo not drawn) [compound 325], for which the IC50 amounted to 8 nM.

Turning to `CCC1CN(c2ncc(C)cc2-c2nc(C)no2)CCC1NC1CCCCC1` (stereo not drawn) [compound 183], the IC50 was 280 nM.

Regarding `Cc1ccc2cc(-c3nc(C)no3)c(N3CC[C@@H](NC4CCCCC4)[C@H](O)C3)nc2c1` [compound 227], the IC50 was 7 nM.

In the case of `COC(=O)c1cc2ccccc2nc1N1CCC(NC2CCCCC2)C(CO)C1` (stereo not drawn) [compound 157], the IC50 was 37 nM.

Consider `OCC1CN(c2nc3ccccc3cc2-c2ncccn2)CCC1NC1CCCCC1` (stereo not drawn) [compound 264], for which the IC50 is 56 nM.

On to `CC(=O)c1cc(Br)cnc1N1CCC(NC2CCCCC2)C(CO)C1` (stereo not drawn) [compound 97], for which the IC50 was 2000 nM.

Turning to `COC1CN(c2nc3ccc(C)cc3cc2-c2nc(C)no2)CCC1NC1CCCCC1` (stereo not drawn) [compound 293], the IC50 was 20 nM.

For `COC1CN(c2nc3c(C)cccc3cc2-c2nc(C)no2)CCC1NC1CCCCC1` (stereo not drawn) [compound 276], the 50% inhibitory concentration (IC50) was 18 nM.

In the case of `Cc1cnc(N2CCC(NC3CCCCCC3)C(CO)C2)c(-c2nc(C)no2)c1` (stereo not drawn) [compound 197], the IC50 was found to be 85 nM.

As to `CO[C@H]1CN(c2ncc(C)cc2-c2nc(C)no2)CC[C@H]1NC1CCCCC1` [compound 299], the concentration for half-maximal inhibition (IC50) was 25 nM.

For `Cc1noc(-c2cc3ccccc3nc2N2CCC(NC3CCCC3)C(CO)C2)n1` (stereo not drawn) [compound 205], the IC50 was found to be 17 nM.

With `Cc1ccc2nc(N3CCC(NCC(C)C)CC3)c(-c3nc(C4CC4)no3)cc2c1` [compound 354], the IC50 was found to be 4.2 nM.

On to `Cc1ccc2nc(N3CCC(NC4CCOC4)CC3)c(-c3nc(C)no3)cc2c1` (stereo not drawn) [compound 254], for which the 50% inhibitory concentration (IC50) turned out to be 8 nM.

Take `COC(=O)c1cc(Br)cnc1N1CCC(NC2CCCCC2)C(OC)C1` (stereo not drawn) [compound 73]: the IC50 turned out to be 205 nM.

In the case of `Cc1noc(-c2cc(Br)cnc2N2CCC(NC3CCCCC3)C(CO)C2)n1` (stereo not drawn) [compound 145], the IC50 was found to be 117 nM.

Regarding `Cc1noc(-c2cc(C)c(C)nc2N2CCC(NC3CCCCC3)C(CO)C2)n1` (stereo not drawn) [compound 164], the IC50 is 62 nM.

As to `CO[C@H]1CN(c2nc3ccccc3cc2-c2nc(C)no2)CC[C@H]1NC1CCCCC1` [compound 295], the IC50 worked out at 2 nM.

Regarding `COC(=O)c1cc(Br)cnc1N1CCC(NC2CCCCC2)C(OC(C)=O)C1` (stereo not drawn) [C49], the IC50 came to 17000 nM.

Regarding `CC(=O)c1cc(C)cnc1N1CC[C@@H](NC2CCCCC2)[C@H](O)C1` [C60], the IC50 was 14000 nM.

Turning to `Cc1ccc2nc(N3CCC(NC4CCC[C@@H]4O)CC3)c(-c3noc(C)n3)cc2c1` (stereo partly drawn) [compound 440], the IC50 came out at 70 nM.

Take `COC(=O)c1cc(Br)cnc1N1CCC(N[C@H](C)C2CCCCC2)CC1` [compound 17]: the IC50 was 6800 nM.

For `CCOC(=O)c1cc(C(=O)OC)c(C)nc1N1CC[C@@H](NC2CCCCC2)[C@H](O)C1` [compound 119], the IC50 came to 12 nM.

Consider `COC(=O)c1cc(Br)cnc1N1CCC(N[C@@H]2CCCC[C@H]2O)CC1` [compound 1], for which the IC50 amounted to 231 nM.

For the compound `COC(=O)c1cc(Br)cnc1N1CCC(NC2CCCCCC2)CC1` [compound 20], the IC50 was determined as 110 nM.

On to `Cc1ccc2nc(N3CCC(NC4CCCCC4)C3)c(-c3nc(C)no3)cc2c1` (stereo not drawn) [compound 461], for which the IC50 stood at 52 nM.

For `Cc1cnc(N2CCC(NC3CCCCC3)C(CO)C2)c(-c2ncccn2)c1` (stereo not drawn) [compound 245], the IC50 worked out at 79 nM.

In the case of `CCOC(=O)c1cc(C)c(C)nc1N1CC[C@@H](NC2CCCCC2)[C@H](O)C1` [compound 153], the IC50 turned out to be 191 nM.

`CO[C@H]1CN(c2nc3cccc(F)c3cc2-c2nc(C)no2)CC[C@H]1NC1CCCCC1` [compound 520]: the concentration for half-maximal inhibition (IC50) turned out to be 19 nM.

For the compound `COC(=O)c1cc(Br)cnc1N1CCC(NC2CCCCCCC2)CC1` [compound 21], the IC50 was determined as 317 nM.

Take `Cc1noc(-c2cc(C)c(C)nc2N2CC[C@@H](NC3CCCCC3)[C@H](O)C2)n1` [compound 154]: the IC50 worked out at 146 nM.

In the case of `Cc1ccc2nc(N3CCC(NC4CCCC4)CC3)c(-c3ccncn3)cc2c1` [compound 533], the IC50 worked out at 263 nM.

Take `Cc1ccc2nc(N3CCC(NC4CCCCC4)CC3)c(-c3ccc(C)o3)cc2c1` [compound 488]: the IC50 was determined as 19 nM.

With `Cc1ccc2nc(N3CCC(NC4CCC(O)CC4)CC3)c(-c3nc(C)no3)cc2c1` (stereo not drawn) [compound 246], the IC50 was 51 nM.

For the compound `CCc1noc(-c2cc3cc(C)ccc3nc2N2CC[C@@H](NC3CCCCC3)[C@@H](OC)C2)n1` [compound 297], the 50% inhibitory concentration (IC50) was 2 nM.

As for `COC1CN(c2nc(C)c(C)cc2-c2nc(C)no2)CCC1NC1CCOCC1` (stereo not drawn) [compound 321], the IC50 is 105 nM.

Regarding `COC(=O)c1cccnc1N1CCC(NC2CCCCC2C)C(O)C1` (stereo not drawn) [compound 53], the IC50 stood at 5600 nM.

As to `Cc1ccc2nc(N3CCC(NC4CC5CCC4C5)CC3)c(-c3nc(C)no3)cc2c1` (stereo not drawn) [compound 265], the IC50 was determined as 49 nM.

Take `COC(=O)c1cc(Br)cnc1N1CCC(NC(=O)C2CCCCC2)C(O)C1` (stereo not drawn) [C54]: the IC50 was > 20000 nM.

Consider `Cc1ccc2nc(N3CCC(Nc4ncccn4)CC3)c(-c3nc(C)no3)cc2c1` [C83], for which the IC50 was found to be 47000 nM.

In the case of `Cc1ccc2nc(N3CCC(NC4CCOCC4)CC3)c(C(=O)OC(C)C)cc2c1` [compound 302], the IC50 is 274 nM.

Consider `COC(=O)c1cc(Br)cnc1N1CCC(NC2CCCCCC2)C(O)C1` (stereo not drawn) [compound 60], for which the IC50 is 68 nM.

Regarding `Cc1ccc2nc(N3CCC(N[C@H]4CCCC[C@@H]4O)CC3)c(-c3ccncn3)cc2c1` [compound 516], the IC50 came out at 564 nM.

`COC(=O)c1cc(I)cnc1N1CCC(NC2CCOCC2)C(CO)C1` (stereo not drawn) [compound 90]: the IC50 amounted to 186 nM.

For `CO[C@H]1CN(c2nc3ccc(C)cc3cc2C(C)=O)CC[C@H]1NC1CCCCC1` [compound 483], the IC50 stood at 315 nM.

On to `COC(=O)c1cc(Br)cnc1N1CCC(NC2CCCCC2OC)CC1` (stereo not drawn) [compound 26], for which the IC50 was found to be 267 nM.

With `Cc1noc(-c2cc3ccc(F)c(C)c3nc2N2CCC(NC3CCOCC3)CC2)n1` [compound 493], the IC50 is 132 nM.

On to `CO[C@H]1CN(c2nc3cc(Cl)ccc3cc2-c2nc(C)no2)CC[C@H]1NC1CCCCC1` [compound 537], for which the IC50 is 12 nM.

As to `COC(=O)c1cc(Br)cnc1N1CCC(NC2CCOCC2)CC1` [compound 13], the IC50 is 621 nM.

Turning to `COC(=O)c1cc([N+](=O)[O-])cnc1N1CCC(NC2CCCCC2)CC1` [compound 84], the IC50 came out at 6200 nM.

Regarding `Cc1cnc(N2CCC(NC3CCCCC3)C(CO)C2)c(C#N)c1` (stereo not drawn) [C68], the IC50 was > 20000 nM.

Take `COC(=O)c1cc(I)cnc1N1CCC(NC2CCCCC2)C(OC)C1` (stereo not drawn) [compound 123]: the IC50 was 11 nM.

As for `COC(=O)c1cc(Br)cnc1N1CCC(NC2CCCCC2C)C(O)C1` (stereo not drawn) [compound 58], the 50% inhibitory concentration (IC50) is 419 nM.

`COC(=O)c1cc(Br)cnc1N1CC(O)C(NC2CCCCC2)C1` (stereo not drawn) [compound 48]: the IC50 was 459 nM.

Regarding `COC1CN(c2nc3ccccc3cc2-c2nc(C)no2)CCC1NC1CCCCC1` (stereo not drawn) [compound 292], the IC50 came out at 33 nM.

Regarding `Cc1ccc2nc(N3CCC(NCC(C)(C)O)CC3)c(-c3nc(C)no3)cc2c1` [compound 402], the IC50 amounted to 16 nM.

For the compound `O=C(O)c1cc(Br)cnc1N1CCC(NC2CCCCC2)CC1` [compound 34], the IC50 came to 5200 nM.

Regarding `COC(=O)c1cc(Br)cnc1N1CCC(NC2CCCC2)C(C(=O)OC)C1` (stereo not drawn) [compound 114], the IC50 stood at 1200 nM.

As for `Cc1ccc2nc(N3CCC(NC4CCOCC4)CC3)c(-c3ccc(C)o3)cc2c1` [compound 501], the IC50 was determined as 331 nM.

With `Cc1noc(-c2cc3ccc(Cl)cc3nc2N2CCC(NC3CCCCC3)CC2)n1` [compound 536], the IC50 was found to be 19 nM.

Consider `CN(C)C(=O)c1cc(Br)cnc1N1CC[C@@H](NC2CCCCC2)[C@H](O)C1` [compound 138], for which the IC50 is 3200 nM.

As for `Cc1nc(-c2cc3ccc(F)cc3nc2N2CCC(NC3CCCCC3)CC2)no1` [compound 480], the IC50 worked out at 8 nM.
